Experimental data: patent US4698340A, “Pyrimidine derivatives, processes for preparation thereof and composition containing the same” (Fujisawa Pharmaceutical Co., Ltd., priority 1984, dated 1987)

How the values were obtained:
[1] = test system: Arachidonic Acid-Induced Cerebral Edema in Rat; test: Effect on Arachidonic Acid-Induced Cerebral Edema in Rat; format: in vivo, rat (male Wistar); conditions: for Water content, Contralatelal hemisphere / Water content, Infarcted hemisphere: N = 6; for Water content, Infarcted hemisphere: **P < 0.01
Experimental: Effect on Arachidonic Acid-Induced Cerebral Edema in Rat
Male wistar rats were anesthetized with ethyl ether. The right lingual and occipital arteries were ligated. Retrograde cannulation was performed at the bifurcation of the external and internal carotid arteries via the upper part of the right external artery. Arachidonic acid dissolved in 10% ethyl alcohol and 0.4% Na2 CO3 was injected into the internal carotid artery in a dose of 2 mg/0.2 ml/kg at a speed of 0.08 ml/min. Two hours after the injection of arachidonic acid, the animals were decapitated and water content in the infarcted and contralatelal hemisphere was measured. The test drug was administered intraperitoneally 30 min before the injection of arachidonic acid.
(§1) Test compounds were dissolved in saline.

Rat Brain Mitochondria = test: Effect on Lipid Peroxide Production in Rat Brain Mitochondria (malondialdehyde, thiobarbituric acid method); format: biochemical, rat (male Wistar); conditions: 1 hr at 37° C., 100 μM ascorbic acid, 20 μM FeSO4
Experimental: Effect on Lipid Peroxide Production in Rat Brain Mitochondria
Brain mitochondria from male Wistar rat was incubated with 100 μM ascorbic acid, 20 μM FeSO4 and test drug for 1 hr at 37° C. Malondialdehyde formed in the incubation mixture was measured by the thiobarbituric acid method according to Shimada et al (Biochem. Biophys. Acta, 489; 163-172. 1977)
Test compounds were dissolved in water

Mice Subjected to Anoxia = test: Effect on Survival Time of Mice Subjected to Anoxia (100% N2); format: in vivo, mouse (male ICR); conditions: 30 min before anoxia, n = 10, **P < 0.01 vs control
Experimental: Effect on Survival Time of Mice Subjected to Anoxia (100% N2)
A pair of male ICR mice with the same age was maintained in a close glass chamber in which circulated a current of nitrogen gas, and measured survival time. One mouse was pretreated intraperitoneally with the test compound, and another with the vehicle 30 min before the experiment.
as §1

[2] = 32 mg/kg i.p. 30 min before arachidonic acid, vehicle (1) 78.7 ± 0.4, (2), (3) 79.4 ± 0.2
[3] = 32 mg/kg i.p. 30 min before arachidonic acid, vehicle (1) 81.9 ± 0.4, (2), (3) 81.5 ± 0.4

SMILES	Inhibition % (malondialdehyde formation) (Rat Brain Mitochondria; at 10^-5 g/ml)	Water content, Contralatelal hemisphere [1, 2]	Water content, Infarcted hemisphere [1, 3]	further results
CCCCC/C=C\C/C=C\C/C=C\C/C=C\CCCC(=O)O [Arachidonic acid, reference compound]	–	–	–	water content of the ipsilatelal hemisphere after injection into internal carotid artery (in words) ([1]; 2 mg/0.2 ml/kg, two hours after the injection): caused increase of water content
Cc1nc(-c2ccccc2)nc(-c2cccc([N+](=O)[O-])c2)c1C(=O)N1CCN(C)CC1 [Example 21, 6-methyl-5-(4-methylpiperazin-1-ylcarbonyl)-4-(3-nitrophenyl)-2-phenyl-pyrimidine]	72.8%	78.6 ± 0.1%	79.7 ± 0.3%	–
COC(=O)c1c(C)nc(-c2ccccc2)nc1-c1cc([N+](=O)[O-])ccc1SC [Example 26, methyl 6-methyl-4-(2-methylthio-5-nitrophenyl)-2-phenyl-5-pyrimidinecarboxylate]	–	–	–	Inhibition % (malondialdehyde formation) (Rat Brain Mitochondria; at 10^-4 g/ml): 90.9%
Cc1nc(-c2ccccc2)nc(-c2cccc([N+](=O)[O-])c2)c1C(=O)NCCN(C)C.O=C(O)/C=C/C(=O)O [Example 32, N-(2-dimethylaminoethyl)-6-methyl-4-(3-nitrophenyl)-2-phenyl-5-pyrimidinecarboxamide fumarate]	–	79.3 ± 0.2%	79.9 ± 0.1%	Survival time (Mice Subjected to Anoxia; 10 mg/kg intraperitoneally, control 30.5 ± 0.5): 37.0 ± 1.5 s; Survival time (Mice Subjected to Anoxia; 100 mg/kg intraperitoneally, control 39.0 ± 1.2): 50.0 s; Water content, Contralatelal hemisphere ([1]; 10 mg/kg i.p. 30 min before arachidonic acid, vehicle 78.7 ± 0.4): 79.0 ± 0.3%; Water content, Infarcted hemisphere ([1]; 10 mg/kg i.p. 30 min before arachidonic acid, vehicle 81.9 ± 0.4): 80.2 ± 0.1%
Cc1nc(-c2ccccc2)nc(-c2cccc([N+](=O)[O-])c2)c1C(=O)NCCN1CCSCC1 [Example 36, 6-methyl-4-(3-nitrophenyl)-2-phenyl-N-[2-(4-thiomorpholino)ethyl]-5-pyrimidinecarboxamide]	70.2%	78.9 ± 0.1%	79.5 ± 0.2%	–
